What was measured:
[1] = system: canine right ventricular epicardial myocytes; assay: Action potential recording (current clamp) in canine RV epicardial myocytes; format: cell-based; details: 10 μM
Experimental: (§1) Single myocytes were isolated from coronary-perfused canine right or left ventricular wedge preparations via enzymatic dissociation. Briefly, the wedge preparations were coronary perfused with nominally Ca^+2-free Tyrode's solution for a period of 15 min. They were then subjected to enzymatic digestion in nominally Ca^2+-free solution supplemented with 0.6 mg/ml collagenase (type II; Worthington) and 0.075 mg/ml protease (type XIV; Sigma) for 25-35 min. The wedge preparation was then perfused for 15 min with a taurine buffer solution containing (in mM): 108 NaCl, 10 HEPES, 11 D-glucose, 4 KCl, 1.2 MgSO4, 1.2 NaH2PO4, 50 taurine and 0.025 CaCl2. pH was adjusted to 7.4 using NaOH. After perfusion, thin slices of tissue were cut from the epicardial surface to obtain single epicardial cells as previously described.^6
Ito and APs were measured in isolated RV or LV myocytes. APs were measured in the current-clamp mode in the whole-cell configuration. APs were initiated using intracellular current injection and recorded continuously by means of Clampex software (Axon Instruments/Molecular Devices) at a sampling frequency of […]. Ito was measured using the Axopatch 200B-2 amplifier in V-Clamp mode.

CaV1.2 (ICa) = assay: Whole-cell patch clamp of ICa in canine ventricular myocytes; format: cell-based; details: 10 μM; at 0 mV; control −5.13+0.77; shift not statistically significant
Experimental: as §1
ICa was measured in canine ventricular myocytes at 37° C. ICa was elicited by application of 300 ms steps from −50 to +40 mV. Extended protocols were avoided to prevent current rundown. Internal solution contained (in mM): 120 CsCl, 1 MgCl2, 10 EGTA, 5 Mg-ATP, 10 HEPES, 5 CaCl2. pH was adjusted to 7.2 with CsOH. External solution contained (in mM): 140 NaCl, 10 HEPES, 10 D-glucose, 4 KCl, 1 MgCl2, 2 CaCl2, 2 4-AP and 0.1 BaCl2.

Structure (SMILES): Cc1nc(-n2cccc2)sc1C(=O)N=c1[nH]c2ccccc2[nH]1 [AR-787, N-(1H-benzimidazol-2-yl)-4-methyl-2-pyrrol-1-yl-thiazole-5-carboxamide]
- Action potential duration (APD) [1]: tendency to abbreviate but this effect was not statistically significant
- effect on AP notch ([1]; 0.5 Hz): significantly suppressed the AP notch
- ICa peak density (CaV1.2 (ICa)): −6.95+1.88 pA/pF
